In brackets after ≈: the same amount, converted by molar mass. Read-outs that look alike come from different tables or passages of the source.
Legend:
[1] = Toxicity in Sarcoma 180 bearing CD 1 mice (toxic deaths, autopsy); format: in vivo
Description: (§1) The antitumor activity of the compounds of the invention was tested on ascites Sarcoma 180. 3 month old CD 1 mice were used. Sarcoma 180 ascites cells were inoculated intraperitoneally (10^6 cells/mouse).
(§2) The test compounds were dissolved in distilled water, then diluted in Ringer's solution, and administered intraperitoneally 1 day after the tumor implant (10 ml./kg. of body weight). The toxicity of the test compounds was evaluated by macroscopic autoptic examination, mainly in terms of reduction in spleen size. The comparison of the effectiveness of the tested compounds is based on the maximum increase in median survival time, as compared to untreated controls, over the dose range used. The number of Long Term Survivors (LTS) refers to tumor-free mice at the end of the test (60 days).

[2] = tested on: ascites Sarcoma 180; test: Antitumor activity on ascites Sarcoma 180 in CD 1 mice; format: in vivo; conditions: for LTS, Long Term survivors: after 60 days; for T/C, median survival time as % over controls: 1 treatment i.p. at day 1
Description: as §1, §2

[3] = tested on: Moloney Sarcoma virus (MSV); test: MSV foci formation in mouse embryo fibroblasts (in vitro); format: cell-based; conditions: Fibroblast, read-out: ID50 MSV foci formation
Description: (§3) (2) Mouse embryo fibroblasts (MEF) were plated on 35 mm. Falcon plastic dishes, infected 24 hours later with Moloney Sarcoma virus (MSV), and treated for 3 days with different concentrations of the compounds of the invention. The number of foci of transformed cells was microscopically ascertained 5 days after the infection. Uninfected MEF were similarly treated, and at the end of the test, the cells were counted in a hemocytometer. In all the tests, the cells were incubated in a 5% CO2 incubator at 37° C.
(§4) The test compounds were dissolved in distilled water and then diluted in culture medium.
(§5) The results are reported in Table I as ID50 (Inhibiting Dose 50%), calculated on dose-effects lines.

[4] = MEF proliferation (uninfected mouse embryo fibroblasts, in vitro); format: cell-based; conditions: time of exposure 72 hours, read-out: ID50 MEF proliferation
Description: as §3, §4

[5] = tested on: HeLa cells; test: HeLa cells cloning efficiency (in vitro); format: cell-based; conditions: for IC50: Homo sapiens, HeLa, read-out: ID50 HeLa cells cloning efficiency
Description: (1) HeLa cells were exposed to each of compounds (I) and (V) for 2, 8 and 24 hours, after which the compounds were removed and the cells seeded on […]. Falcon plastic dishes (200 cells/plate) in a growth medium. The number of colonies was ascertained microscopically 5 days later.
as §4, §5

| Compound | LTS, Long Term survivors ([2]; 10 mg./kg. i.p. at day 1) | T/C, median survival time as % over controls ([2]; 10 mg./kg.) | IC50 ([3]; 72 h) | CC50 at 72 h [4] | IC50 ([5]; 2 h) | IC50 ([5]; 8 h) | IC50 ([5]; 24 h) | T/C, median survival time as % over controls ([2]; 2 mg./kg.) | Toxicity, number of mice which died as a result of the toxic effects of the compound ([1]; 5 mg./kg. i.p. at day 1) | LTS, Long Term survivors ([2]; 0.5 mg./kg. i.p. at day 1) | T/C, median survival time as % over controls ([2]; 0.5 mg./kg.) | LTS, Long Term survivors ([2]; 1 mg./kg. i.p. at day 1) | T/C, median survival time as % over controls ([2]; 1 mg./kg.) | LTS, Long Term survivors ([2]; 2 mg./kg. i.p. at day 1) | T/C, median survival time as % over controls ([2]; 5 mg./kg.) | other results |
| --- | --- | --- | --- | --- | --- | --- | --- | --- | --- | --- | --- | --- | --- | --- | --- | --- |
| COc1cccc2c1C(=O)c1c(O)c3c(c(O)c1C2=O)C[C@@](O)(C(=O)CO)C[C@@H]3O[C@H]1C[C@H](N)[C@@H](O)[C@H](CO)O1 [4'-epi-6'-hydroxyadriamycin] | 2/10 | 162% | 0.025 µg/mL (≈ 0.0447 µM) | 0.05 µg/mL (≈ 0.0894 µM) | 0.9 µg/mL (≈ 1.61 µM) | 1 µg/mL (≈ 1.79 µM) | 1 µg/mL (≈ 1.79 µM) |  |  |  |  |  |  |  |  | Toxicity (in words) ([1]; 15 mg./kg. i.p. at day 1): not toxic; LTS, Long Term survivors ([2]; 7.5 mg./kg. i.p. at day 1): 1/10; T/C, median survival time as % over controls ([2]; 7.5 mg./kg.): 143%; LTS, Long Term survivors ([2]; 15 mg./kg. i.p. at day 1): 2/10; T/C, median survival time as % over controls ([2]; 15 mg./kg.): 134% |
| COc1cccc2c1C(=O)c1c(O)c3c(c(O)c1C2=O)C[C@@](O)(C(C)=O)C[C@@H]3O[C@H]1C[C@H](N)[C@@H](O)[C@H](CO)O1 [4'-epi-6'-hydroxydaunomycin] |  | 167% |  | 0.25 µg/mL (≈ 0.46 µM) |  |  |  | 100% |  |  |  |  |  |  |  | Toxicity, number of mice which died as a result of the toxic effects of the compound ([1]; 50 mg./kg. i.p. at day 1): 1/10; T/C, median survival time as % over controls ([2]; 50 mg./kg.): 137%; IC50 ([3]; time of exposure 72 hours): 0.1 µg/mL (≈ 0.184 µM); IC50 ([5]; time of exposure 2 hours): > 10 µg/mL; IC50 ([5]; time of exposure 8 hours): > 10 µg/mL; IC50 ([5]; time of exposure 24 hours): 1.3 µg/mL (≈ 2.39 µM); decrease of activity as compared to parent compound ([5]; in vitro systems tested (HeLa cells, MSV foci, MEF proliferation), compared with 4'-epi-6'-hydroxyadriamycin versus adriamycin): The decrease of activity was higher |
| COc1cccc2c1C(=O)c1c(O)c3c(c(O)c1C2=O)C[C@@](O)(C(=O)CO)C[C@@H]3O[C@H]1C[C@H](N)[C@H](O)[C@H](C)O1 [Adriamycin, adriamycin] | 18/139 | 212% | 0.0025 µg/mL (≈ 0.0046 µM) | 0.007 µg/mL (≈ 0.0129 µM) | 0.28 µg/mL (≈ 0.515 µM) | 0.11 µg/mL (≈ 0.202 µM) | 0.018 µg/mL (≈ 0.0331 µM) | 210% | 7/125 | 1/10 | 142% | 25/159 | 183% | 30/125 | 243% | Toxicity, number of mice which died as a result of the toxic effects of the compound ([1]; 10 mg./kg. i.p. at day 1): 18/139; LTS, Long Term survivors ([2]; 5 mg./kg. i.p. at day 1): 27/125 |
| COc1cccc2c1C(=O)c1c(O)c3c(c(O)c1C2=O)C[C@@](O)(C(C)=O)C[C@@H]3O[C@H]1C[C@H](N)[C@H](O)[C@H](C)O1 [Daunomycin, daunomycin] |  |  | 0.0055 µg/mL (≈ 0.0104 µM) | 0.009 µg/mL (≈ 0.0171 µM) | 0.03 µg/mL (≈ 0.0569 µM) | 0.013 µg/mL (≈ 0.0246 µM) | 0.003 µg/mL (≈ 0.00569 µM) | 192% | 14/50 | 3/20 | 146% | 8/55 | 172% | 11/68 | 176% | Toxicity, number of mice which died as a result of the toxic effects of the compound ([1]; 8 mg./kg. i.p. at day 1): 7/10; T/C, median survival time as % over controls ([2]; 8 mg./kg.): 78% |

From patent US4025623A, “4'-Epi-6'-hydroxyadriamycin and method of use” (priority 1974, dated 1977)
